# Reference: the supplement of paper PMC11208160
# Experiment: recombinant UMI read abundance after kanamycin selection (control-corrected) (log10(CPM+1)); higher = more efficient recombination; extreme values may be limits of the assay; sequences stand for … in AGTGCAGAGAAAATCGGCCAGTTTTCTCTGCCTGCAGTCCGCATGCCGTGGGACCCCTTGGGTTCTAACCTGTTGCCTAGATTTATGCAGCGGACTGCCTTTCTCCCAAAGTGATAAACCGG…AGGTTGGTTTCACT; site = the 11-nt donor
# Method in brief: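 Pooled Escherichia coli screen of donor and donor-binding-loop pairs for the IS621 bridge recombinase. Each pair sits with a 12-nt UMI on a plasmid carrying a promoterless kanamycin gene. The library was co-electroporated with a target plasmid encoding a fixed target and T7-inducible recombinase, then plated with IPTG (0.07 mM) plus kanamycin, or unselected, each in two replicates. Recombinant UMIs were PCR-amplified across the donor–target junction and sequenced. Counts became CPM, averaged over replicates, scaled by control-derived factors and reported as log10(CPM+1).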
row,Sequence,recombinant UMI read abundance (log10)
1,CGCCGTACATGGACCGGTTTTCCCGGTAATCCGTATTTGCA (site CGCCGTACTCG),0.013
2,CGCCGTACATGGACCGGTTTTCCCGGTAATCCGTATTTGCA (site CGCCGTACTGG),0.685
3,CGCCGTACATGGACCGGTTTTCCCGGTAATCCGTATTTGCA (site CGCCGTACTTG),2.07
4,CGCCGTACATGGACCGGTTTTCCCGGTAATCCGTATTTGGT (site CGCCGTACTAA),0.0124
5,CGCCGTACATGGACCGGTTTTCCCGGTAATCCGTATTTGGT (site CGCCGTACTAC),0.57
6,CGCCGTACATGGACCGGTTTTCCCGGTAATCCGTATTTGGT (site CGCCGTACTAG),0
7,CGCCGTACATGGACCGGTTTTCCCGGTAATCCGTATTTGGT (site CGCCGTACTAT),0.321
8,CGCCTGTCATGGACCGGTTTTCCCGGTAATCCGTATTTGTT (site CGCCTGTCTAA),0.902
9,CGCCTTCCATGGACCGGTTTTCCCGGTAATCCGTATTTGGT (site CGCCTTCCTAC),0.0121
10,CGCGGAACATGGACCGGTTTTCCCGGTAATCCGTATTTGTT (site CGAGGAACTAA),0.0752
11,CGCGGAACATGGACCGGTTTTCCCGGTAATCCGTATTTGTT (site CGCGGAACTAA),2.39
12,CGCGGAACATGGACCGGTTTTCCCGGTAATCCGTATTTGTT (site CGGGGAACTAA),0.0138
13,CGCGGAACATGGACCGGTTTTCCCGGTAATCCGTATTTGTT (site CGTGGAACTAA),0.00441
14,CGCGGAGCATGGACCGGTTTTCCCGGTAATCCGTATTTGGC (site CGCGGAGCTGC),0.884
15,CGCGGAGCATGGACCGGTTTTCCCGGTAATCCGTATTTGGT (site CGCGGAGCTAC),1.14
16,CGCGTTCCATGGACCGGTTTTCCCGGTAATCCGTATTTGGA (site CGCGTTCCTTC),0
17,CGCTCCTCATGGACCGGTTTTCCCGGTAATCCGTATTTGCT (site CGATCATCTAG),0
18,CGCTCCTCATGGACCGGTTTTCCCGGTAATCCGTATTTGCT (site CGCTCCTCTAG),3.07
19,CGCTCCTCATGGACCGGTTTTCCCGGTAATCCGTATTTGTG (site CGCTCCTCTCA),0.976

row,Sequence,recombinant UMI read abundance (log10)
1,CGCTTAGCATGGACCGGTTTTCCCGGTAATCCGTATTTGTA (site CGCTTAGCTTA),1.88
2,CGCTTTCCATGGACCGGTTTTCCCGGTAATCCGTATTTGGT (site CGCTTTCCTAC),0
3,CGCTTTGCATGGACCGGTTTTCCCGGTAATCCGTATTTGGT (site CGCTTTGCTAC),1.08
4,CGGAAACCATGGACCGGTTTTCCCGGTAATCCGTATTTGAT (site CGGAAACCTAT),0
5,CGGAAACCATGGACCGGTTTTCCCGGTAATCCGTATTTGAT (site CGGCAACCTAT),0.00975
6,CGGAAACCATGGACCGGTTTTCCCGGTAATCCGTATTTGAT (site CGGGAACCTAT),0
7,CGGAAACCATGGACCGGTTTTCCCGGTAATCCGTATTTGAT (site CGGTAACCTAT),0
8,CGGAAACCATGGACCGGTTTTCCCGGTAATCCGTATTTGTA (site CGGAAACCTTA),0
9,CGGAAACCATGGACCGGTTTTCCCGGTAATCCGTATTTGTA (site CGGAATCCTAA),0
10,CGGAAACCATGGACCGGTTTTCCCGGTAATCCGTATTTGTT (site CGGAAACCTAA),0
11,CGGAAACCATGGACCGGTTTTCCCGGTAATCCGTATTTGTT (site CGGAACCCTAA),0.00618
12,CGGAAACCATGGACCGGTTTTCCCGGTAATCCGTATTTGTT (site CGGAAGCCTAA),0.00793
13,CGGAAACCATGGACCGGTTTTCCCGGTAATCCGTATTTGTT (site CGGAATCCTAA),0
14,CGGAAATCATGGACCGGTTTTCCCGGTAATCCGTATTTGTT (site CGGAAATCTAA),2.29
15,CGGAAATCATGGACCGGTTTTCCCGGTAATCCGTATTTGTT (site CGGAATCCTAA),0
16,CGGAACCCATGGACCGGTTTTCCCGGTAATCCGTATTTGTT (site CGGAAACCTAA),0.0541
17,CGGAACCCATGGACCGGTTTTCCCGGTAATCCGTATTTGTT (site CGGAACCCTAA),0.964
18,CGGAACCCATGGACCGGTTTTCCCGGTAATCCGTATTTGTT (site CGGAAGCCTAA),0.00321
19,CGGAACCCATGGACCGGTTTTCCCGGTAATCCGTATTTGTT (site CGGAATCCTAA),0.208

row,Sequence,recombinant UMI read abundance (log10)
1,CGGAAGACATGGACCGGTTTTCCCGGTAATCCGTATTTGAA (site AGGAAGACTTG),0
2,CGGAAGACATGGACCGGTTTTCCCGGTAATCCGTATTTGAA (site CGGAAGACTTT),2.24
3,CGGAAGCCATGGACCGGTTTTCCCGGTAATCCGTATTTGTT (site CGGAAACCTAA),0
4,CGGAAGCCATGGACCGGTTTTCCCGGTAATCCGTATTTGTT (site CGGAACCCTAA),0.00486
5,CGGAAGCCATGGACCGGTTTTCCCGGTAATCCGTATTTGTT (site CGGAAGCCTAA),0.218
6,CGGAAGCCATGGACCGGTTTTCCCGGTAATCCGTATTTGTT (site CGGAATCCTAA),0
7,CGGAAGTCATGGACCGGTTTTCCCGGTAATCCGTATTTGCC (site CGGAAGTCTGG),2.88
8,CGGAAGTCATGGACCGGTTTTCCCGGTAATCCGTATTTGCC (site CGGCAGTCTGG),0
9,CGGAAGTCATGGACCGGTTTTCCCGGTAATCCGTATTTGCC (site CGGGAGTCTGG),0.686
10,CGGAAGTCATGGACCGGTTTTCCCGGTAATCCGTATTTGCC (site CGGTAGTCTGG),1.08
11,CGGAATACATGGACCGGTTTTCCCGGTAATCCGTATTTGAT (site CGGAATACTAT),2.16
12,CGGAATACATGGACCGGTTTTCCCGGTAATCCGTATTTGAT (site CGGAATCCTAA),0
13,CGGAATCCATGGACCGGTTTTCCCGGTAATCCGTATTTGCT (site CGGAATCCTAA),0.106
14,CGGAATCCATGGACCGGTTTTCCCGGTAATCCGTATTTGCT (site CGGAATCCTAC),0
15,CGGAATCCATGGACCGGTTTTCCCGGTAATCCGTATTTGCT (site CGGAATCCTAG),2.08
16,CGGAATCCATGGACCGGTTTTCCCGGTAATCCGTATTTGCT (site CGGAATCCTAT),0.767
17,CGGAATCCATGGACCGGTTTTCCCGGTAATCCGTATTTGTC (site CGGAATCCTAA),0
18,CGGAATCCATGGACCGGTTTTCCCGGTAATCCGTATTTGTC (site CGGAATCCTCA),0.00507
19,CGGAATCCATGGACCGGTTTTCCCGGTAATCCGTATTTGTC (site CGGAATCCTGA),2.06
